From patent US20240200147A1, “Non-Small Cell Lung Cancer Diagnosis and Treatment” (West Virginia University Board of Governors on Behalf of …, priority 2022, published 2024)
Like-named read-outs stand apart in the source and are kept apart here. Non-standard residues stand in square brackets, D forms with d. Residues, ends and D or L forms follow the SMILES beside them.

Columns and labels:
[1] = system: phosphorylated extracellular signal-regulated kinase (pERK); conditions: patients with locally advanced/metastatic melanoma; clinically relevant doses; phase I; cited from earlier work
CCLE NSCLC cell lines = test: Average IC50 and EC50 of selected compounds in PRISM drug screening data; type: cell-based, human; conditions: for EC50 / IC50: PRISM dataset, NSCLC cell lines, outliers (drug concentration value > 10) removed
Description: The drug sensitivity data of human NSCLC cell lines were taken from multiple resources. The secondary PRISM repurposing dataset was obtained from the DepMap release 19Q4. […] A total of 64 NSCLC cell lines from GDSC1 and 58 NSCLC cell lines from GDSC2 were included in this study. Details of the categorization of drug sensitivity in each cell line were included in our previous publications.

pERK = conditions: patients with solid tumors; phase I; cited from earlier work
[2] = system: human NSCLC A549 and NCI-H358 cells; conditions: cited from earlier work
[3] = system: EGFR and HER2 transactivation; conditions: cited from earlier work
NSCLC H460 cells = conditions: in-vitro and in-vivo; cited from earlier work
[4] = system: oxidative phosphorylation; conditions: mitochondrial protonophore; cited from earlier work
refractory NSCLC = refractory NSCLC patients; open-label phase II; cited from earlier work
NSCLC cells [5] = conditions: cited from earlier work
NSCLC cells [6] = conditions: cited from earlier work; remark: listed apart in the source
U2OS and 143B lines = conditions: cited from earlier work
U87MG glioma cells = conditions: cited from earlier work
glioma tumor = conditions: mouse xenograft model; cited from earlier work
[7] = system: human breast cancer MDA-MB-231 and HBC-4 cells; conditions: cited from earlier work
[8] = system: endogenous promoters containing activator protein 1 (AP-1) response elements; conditions: genes lacking an AP-1 response element not affected; cited from earlier work
[9] = system: Ki-ras-transformed rat fibroblasts; conditions: concurrent suppression of ERK and mTOR-p70(S6K) pathways; cited from earlier work
trophoblast = conditions: fetal growth restriction; cited from earlier work
NSCLC = conditions: linsitinib added to erlotinib, compared with erlotinib alone; cited from earlier work
non-progressing NSCLC = conditions: maintenance therapy, linsitinib added to erlotinib; cited from earlier work
[10] = system: late-stage, metastatic, Kras-mutant NSCLC; conditions: compared with various combination therapies, chemo-, and immune therapy; cited from earlier work
[11] = BMS-754807 alone, A549 and NCI-H358
[12] = induced by addition of ET-1 to NSCLC cells

O=C(NC[C@H](O)CO)c1ccncc1Nc1ccc(I)cc1F [AS-703026, pimasertib]
pERK in peripheral blood mononuclear cells [1]: inhibition | EC50 (CCLE NSCLC cell lines; Homo sapiens): 940 nM | IC50 (CCLE NSCLC cell lines; Homo sapiens): 1510 nM | pERK (pERK): inhibited

C[C@@]1(C(=O)Nc2ccc(F)nc2)CCCN1c1nc(Nc2cc(C3CC3)n[nH]2)c2cccn2n1 [BMS-754807]
effect on cisplatin and carboplatin ([2]; A549 cells): enhanced | apoptosis [2, 11]: enhanced | cell survival and wound closure [2, 11]: reduced | EC50 (CCLE NSCLC cell lines; Homo sapiens): 1020 nM | IC50 (CCLE NSCLC cell lines; Homo sapiens): 1740 nM

CC(C)C[C@@H]1NC(=O)[C@@H](C(C)C)NC(=O)[C@@H]2CCCN2C(=O)[C@@H](CC(=O)O)NC(=O)[C@@H](Cc2c[nH]c3ccccc23)NC1=O [BQ-123] (cyclo(L[dW][dD]P[dV]))
increase in EGFR and HER2 transactivation [3, 12]: inhibited

CNC(=O)[C@H](Cc1c[nH]c2ccccc12)NC(=O)[C@@H](CC(=O)NO)CC(C)C [GM6001]
increase in EGFR and HER2 transactivation [3, 12]: inhibited

CS(=O)(=O)CCNCc1ccc(-c2ccc3ncnc(Nc4ccc(OCc5cccc(F)c5)c(Cl)c4)c3c2)o1 [Lapatinib]
increase in EGFR and HER2 transactivation [3]: inhibited

N#CC(=C(N)Sc1ccc(N)cc1)c1ccccc1C(F)(F)F [MEK1-2-inhibitor]
EC50 (CCLE NSCLC cell lines): 2200 nM | IC50 (CCLE NSCLC cell lines): 4200 nM

CN1CC[C@]23c4c5ccc(O)c4O[C@H]2[C@@H](O)C=C[C@H]3[C@H]1C5 [Morphine]
growth of NSCLC H460 cells (NSCLC H460 cells): promoted

COc1cccc(-c2cc(=O)c3ccccc3o2)c1N [PD-98059]
EC50 (CCLE NSCLC cell lines): 607 nM | IC50 (CCLE NSCLC cell lines): 4980 nM

O=C(NOCC1CC1)c1ccc(F)c(F)c1Nc1ccc(I)cc1Cl [PD-184352]
EC50 (CCLE NSCLC cell lines): 2190 nM | IC50 (CCLE NSCLC cell lines): 3990 nM

Cc1cc(I)ccc1Nc1c(C(=O)NOCC2CC2)cc(F)c(F)c1F [PD-198306]
oxidative phosphorylation [4]: uncouples | EC50 (CCLE NSCLC cell lines; Homo sapiens): 2030 nM | IC50 (CCLE NSCLC cell lines; Homo sapiens): 3160 nM

O=C(NOC[C@H](O)CO)c1ccc(F)c(F)c1Nc1ccc(I)cc1F [PD-0325901]
primary endpoint (refractory NSCLC): did not meet | EC50 (CCLE NSCLC cell lines): 386 nM | IC50 (CCLE NSCLC cell lines): 748 nM | average IC50 and EC50 values (in words) (CCLE NSCLC cell lines; PRISM drug screening data): small

Cc1ccc(-c2nn(C(C)(C)C)c3ncnc(N)c23)cc1 [PP-1]
EC50 (CCLE NSCLC cell lines): 2080 nM | IC50 (CCLE NSCLC cell lines): 3410 nM | phosphorylation induced by morphine (NSCLC cells [5]): decreased | antiapoptotic impact of morphine (NSCLC cells [6]): reversed

CC(C)(C)n1nc(-c2ccc(Cl)cc2)c2c(N)ncnc21 [PP-2]
EC50 (CCLE NSCLC cell lines): 2480 nM | IC50 (CCLE NSCLC cell lines): 3190 nM | increase in EGFR and HER2 transactivation [3, 12]: inhibited

COc1ccc(Cl)cc1NC(=O)Nc1cc(C)nc2ccccc12 [PQ-401]
EC50 (CCLE NSCLC cell lines; Homo sapiens): 2200 nM | IC50 (CCLE NSCLC cell lines; Homo sapiens): 5340 nM | osteosarcoma cell proliferation, migration, and colony formation (U2OS and 143B lines): inhibits | apoptosis (U87MG glioma cells): induces | in-vitro viability, proliferation, and mobility (U87MG glioma cells): inhibits | in-vivo glioma tumor growth (glioma tumor): inhibits

O=S(=O)(O)c1cc(O)c(O)c(S(=O)(=O)O)c1 [Tiron]
increase in EGFR and HER2 transactivation [3, 12]: inhibited

N#CC(=C(/N)Sc1ccccc1N)/C(C#N)=C(\N)Sc1ccccc1N [U-0126]
sensitivity to anoikis [7]: sensitizes | EC50 (CCLE NSCLC cell lines; Homo sapiens): 1870 nM | IC50 (CCLE NSCLC cell lines; Homo sapiens): 4530 nM | endogenous promoters containing AP-1 response elements [8]: inhibits | anchorage-independent growth [9]: inhibits

COc1nc(C)cnc1NS(=O)(=O)c1cccnc1-c1ccc(-c2nnco2)cc1 [ZD4054]
increase in EGFR and HER2 transactivation [3, 12]: inhibited

COc1cc2ncnc(Nc3ccc(Cl)cc3F)c2cc1OC [ZM-306416]
EC50 (CCLE NSCLC cell lines; Homo sapiens): 1080 nM | IC50 (CCLE NSCLC cell lines; Homo sapiens): 2630 nM | trophoblast proliferation and migration (trophoblast): impaired

COc1cc(Nc2c(C#N)cnc3cc(OCCCN4CCN(C)CC4)c(OC)cc23)c(Cl)cc1Cl [bosutinib]
EC50 (CCLE NSCLC cell lines; Homo sapiens): 1590 nM | IC50 (CCLE NSCLC cell lines; Homo sapiens): 3160 nM

Cc1nc(Nc2ncc(C(=O)Nc3c(C)cccc3Cl)s2)cc(N2CCN(CCO)CC2)n1 [dasatinib]
EC50 (CCLE NSCLC cell lines; Homo sapiens): 504 nM | IC50 (CCLE NSCLC cell lines; Homo sapiens): 555 nM

COc1cc2c(cc1OC)[C@@H]1C(=O)c3ccc4c(c3O[C@@H]1CO2)C=CC(C)(C)O4 [deguelin]
antiapoptotic impact of morphine (NSCLC cells [6]): reversed

O=C1Nc2ccccc2/C1=C1/Nc2ccccc2C1=O [indirubin]
EC50 (CCLE NSCLC cell lines; Homo sapiens): 630 nM | IC50 (CCLE NSCLC cell lines; Homo sapiens): 3550 nM

C[C@]1(O)C[C@@H](c2nc(-c3ccc4ccc(-c5ccccc5)nc4c3)c3c(N)nccn32)C1 [linsitinib]
EC50 (CCLE NSCLC cell lines; Homo sapiens): 2090 nM | IC50 (CCLE NSCLC cell lines; Homo sapiens): 4250 nM | patient outcomes (NSCLC): worse patient outcomes | PFS or OS (non-progressing NSCLC): did not improve

C[N@+]1(CC2CC2)CC[C@]23c4c5ccc(O)c4O[C@H]2C(=O)CC[C@@]3(O)[C@H]1C5 [methylnaltrexone]
phosphorylation induced by morphine (NSCLC cells [5]): decreased | antiapoptotic impact of morphine (NSCLC cells [6]): reversed

CN1CCN(CCOc2cc(OC3CCOCC3)c3c(Nc4c(Cl)ccc5c4OCO5)ncnc3c2)CC1 [saracatinib]
EC50 (CCLE NSCLC cell lines; Homo sapiens): 983 nM | IC50 (CCLE NSCLC cell lines; Homo sapiens): 1730 nM

Cn1cnc2c(F)c(Nc3ccc(Br)cc3Cl)c(C(=O)NOCCO)cc21 [selumetinib]
safety profile in treating NSCLC [10]: better safety profile | EC50 (CCLE NSCLC cell lines; Homo sapiens): 647 nM | IC50 (CCLE NSCLC cell lines; Homo sapiens): 2210 nM
